# Data: patent US20070043008A1, “Condensed Bicyclo[3.1.0] Hex-4-EN Derivatives Useful as Antibacterial Agents” (priority 2003, published 2007)
# Like-named read-outs stand apart in the source and are kept apart here.
# Assays:
# Type in all cases: cell-based
# E. coli ATCC 25922 = assay: MIC/MBC broth dilution, E. coli ATCC 25922; settings: Escherichia coli, ATCC25922; E. coli ATCC 25922, resistant strain (footnote 3)
# Procedure: (§1) The Minimal inhibitory concentration (MIC) and the Minimal bactericidal concentration (MBC) have been tested against various bacteria including patient isolates and antibiotic resistant strains such as S. aureus ATCC 25923, E. coli ATCC 25922, P. aeruginosa ATCC 27853.
# (§2) The bacteria were streaked on a nutrient agar plate to obtain a freshly isolated colony subsequently incubated overnight at 37° C. 4-5 isolated colonies were added into Mueller Hinton broth (MHB) solution, incubated for 4 hrs at 37° C. The turbidity was adjusted to the McFarland tube and the solution was diluted with MHB to 1:200.
# (§3) The test solution was diluted with dimethyl sulfoxide (DMSO) and MHB in the ratio of 1:4 to get a final concentration of 512 μg/ml. 50 μl of MHB were added to each of twelve wells except the first well. Dilutions were made, mixed and the solutions were then incubated overnight at 37° C.
# (§4) In order to determine the MBC, a loopful of each clear well was streaked onto a nutrient containing agar plate, which was subsequently incubated overnight at 37° C. The MBC was then determined as the lowest concentration which has shown no visible colony for each chemical.
# Staphylococcus aureus = assay: MIC/MBC broth dilution, Staphylococcus aureus patient isolates
# Procedure: as §1, §2, §3, §4
# S. aureus ATCC 25923 = assay: MIC/MBC broth dilution, S. aureus ATCC 25923; settings: Staphylococcus aureus, ATCC25923; S. aureus ATCC 25923, resistant strain (footnote 3)
# Procedure: as §1, §2, §3, §4
# Acinetobacter spp. = assay: MIC/MBC broth dilution, Acinetobacter spp. patient isolates
# Procedure: as §1, §2, §3, §4
# P. aeruginosa ATCC 27853 = assay: MIC/MBC broth dilution, P. aeruginosa ATCC 27853; settings: Pseudomonas aeruginosa, ATCC27853; P. aeruginosa ATCC 27853, resistant strain (footnote 3)
# Procedure: as §1, §2, §3, §4
# Klebsiella pneumoniae = assay: MIC/MBC broth dilution, Klebsiella pneumoniae patient isolates
# Procedure: as §1, §2, §3, §4
# Enterobacter spp. = assay: MIC/MBC broth dilution, Enterobacter spp. patient isolates
# Procedure: as §1, §2, §3, §4
# Escherichia coli = assay: MIC/MBC broth dilution, Escherichia coli patient isolates
# Procedure: as §1, §2, §3, §4
# Pseudomonas aeruginosa = assay: MIC/MBC broth dilution, Pseudomonas aeruginosa patient isolates
# Procedure: as §1, §2, §3, §4
# [1] = system: various bacteria including patient isolates and antibiotic resistant strains; assay: Antibacterial evaluation across all bacteria tested (summary of MIC/MBC)
# Procedure: as §1, §2
# The test solution was diluted with dimethyl sulfoxide (DMSO) and MHB in the ratio of 1:4 to get a final concentration of 512 μg/ml. 50 μl of MHB were added to each of twelve wells except the first well. […]
# as §4
# The first step in the evaluation was to determine the zone of inhibition on agar plates comparing the Example compounds with ampicillin and chloramphenicol as standards. Following this initial screening, the MIC/MBC was determined as previously described and the results are outlined in Table 1 for selected examples.
# [2] = Enterobacter, patient isolate En1
# [3] = patient isolates, isolate code not given (one value per isolate)
# [4] = Acinetobacter, patient isolates, isolate code not given (one value per isolate), read-out: MIC
# [5] = Enterobacter, patient isolates, isolate code not given (one value per isolate)
compound,measurement,setting,value
"CN1C2=C(Cl)C(=O)OC21 (stereo not drawn) [Example 1, 4-chloro-6-methyl-2-oxa-6-azabicyclo[3.1.0]hex-4-en-3-one]",MBC,E. coli ATCC 25922,32 µg/mL
same,MIC,E. coli ATCC 25922,16 µg/mL
same,MBC,Staphylococcus aureus; patient isolate S1,> 128 µg/mL
same,MIC,Staphylococcus aureus; patient isolate S1,128 µg/mL
same,MBC,Staphylococcus aureus; patient isolate S2,> 128 µg/mL
same,MIC,Staphylococcus aureus; patient isolate S2,128 µg/mL
same,MBC,Staphylococcus aureus; patient isolate S3,128 µg/mL
same,MIC,Staphylococcus aureus; patient isolate S3,64 µg/mL
same,MBC,Staphylococcus aureus; patient isolate S4,> 128 µg/mL
same,MIC,Staphylococcus aureus; patient isolate S4,64 µg/mL
same,MBC,S. aureus ATCC 25923,64 µg/mL
same,MIC,S. aureus ATCC 25923,16 µg/mL
same,MBC,"Acinetobacter spp.; Acinetobacter, patient isolate A1, read-out: MBC",16 µg/mL
same,MIC,"Acinetobacter spp.; Acinetobacter, patient isolate A1, read-out: MIC",8 µg/mL
same,MBC,"Acinetobacter spp.; Acinetobacter, patient isolate A2, read-out: MBC",64 µg/mL
same,MIC,"Acinetobacter spp.; Acinetobacter, patient isolate A2, read-out: MIC",64 µg/mL
same,MBC,"Acinetobacter spp.; Acinetobacter, patient isolate A3, read-out: MBC",32 µg/mL
same,MIC,"Acinetobacter spp.; Acinetobacter, patient isolate A3, read-out: MIC",16 µg/mL
same,MBC,"Acinetobacter spp.; Acinetobacter, patient isolate A4, read-out: MBC",64 µg/mL
same,MIC,"Acinetobacter spp.; Acinetobacter, patient isolate A4, read-out: MIC",64 µg/mL
same,MBC,"Acinetobacter spp.; Acinetobacter, patient isolate A5, read-out: MBC",32 µg/mL
same,MIC,"Acinetobacter spp.; Acinetobacter, patient isolate A5, read-out: MIC",32 µg/mL
same,MBC,P. aeruginosa ATCC 27853,32 µg/mL
same,MIC,P. aeruginosa ATCC 27853,32 µg/mL
same,MBC,Klebsiella pneumoniae; patient isolate K1,64 µg/mL
same,MIC,Klebsiella pneumoniae; patient isolate K1,64 µg/mL
same,MBC,Klebsiella pneumoniae; patient isolate K2,64 µg/mL
same,MIC,Klebsiella pneumoniae; patient isolate K2,32 µg/mL
same,MBC,Klebsiella pneumoniae; patient isolate K3,32 µg/mL
same,MIC,Klebsiella pneumoniae; patient isolate K3,32 µg/mL
same,MBC,Klebsiella pneumoniae; patient isolate K4,128 µg/mL
same,MIC,Klebsiella pneumoniae; patient isolate K4,128 µg/mL
same,MBC,Klebsiella pneumoniae; patient isolate K5,64 µg/mL
same,MIC,Klebsiella pneumoniae; patient isolate K5,64 µg/mL
same,MBC,Enterobacter spp.; [2],64 µg/mL
same,MIC,Enterobacter spp.; [2],32 µg/mL
same,MBC,"Enterobacter spp.; Enterobacter, patient isolate En3, read-out: MBC",32 µg/mL
same,MIC,"Enterobacter spp.; Enterobacter, patient isolate En3, read-out: MIC",32 µg/mL
same,MBC,"Enterobacter spp.; Enterobacter, patient isolate En4, read-out: MBC",128 µg/mL
same,MIC,"Enterobacter spp.; Enterobacter, patient isolate En4, read-out: MIC",64 µg/mL
same,MBC,"Enterobacter spp.; Enterobacter, patient isolate En5, read-out: MBC",64 µg/mL
same,MIC,"Enterobacter spp.; Enterobacter, patient isolate En5, read-out: MIC",64 µg/mL
same,MBC,Escherichia coli; patient isolate E1,32 µg/mL
same,MIC,Escherichia coli; patient isolate E1,32 µg/mL
same,MBC,Escherichia coli; patient isolate E2,64 µg/mL
same,MIC,Escherichia coli; patient isolate E2,64 µg/mL
same,MBC,Escherichia coli; patient isolate E3,64 µg/mL
same,MIC,Escherichia coli; patient isolate E3,64 µg/mL
same,MBC,Escherichia coli; patient isolate E4,64 µg/mL
same,MIC,Escherichia coli; patient isolate E4,32 µg/mL
same,MBC,Escherichia coli; patient isolate E5,64 µg/mL
same,MIC,Escherichia coli; patient isolate E5,64 µg/mL
same,MBC,Pseudomonas aeruginosa; patient isolate P7,64 µg/mL
same,MIC,Pseudomonas aeruginosa; patient isolate P7,32 µg/mL
same,MBC,Pseudomonas aeruginosa; patient isolate P10,64 µg/mL
same,MIC,Pseudomonas aeruginosa; patient isolate P10,64 µg/mL
same,MBC,Pseudomonas aeruginosa; patient isolate P12,128 µg/mL
same,MIC,Pseudomonas aeruginosa; patient isolate P12,128 µg/mL
same,MBC,Pseudomonas aeruginosa; patient isolate P13,64 µg/mL
same,MIC,Pseudomonas aeruginosa; patient isolate P13,32 µg/mL
same,MBC,Pseudomonas aeruginosa; patient isolate P14,64 µg/mL
same,MIC,Pseudomonas aeruginosa; patient isolate P14,32 µg/mL
same,MBC,Pseudomonas aeruginosa; patient isolate P16,64 µg/mL
same,MIC,Pseudomonas aeruginosa; patient isolate P16,32 µg/mL
same,MIC for antibiotic resistant strains compared with corresponding non-resistant isolates,[1]; resistant ATCC strains vs patient isolates,lower MIC for the antibiotic resistant strains than the corresponding non-resistant isolates
"O=C1OC2NC2=C1Cl (stereo not drawn) [Example 3, 4-chloro-2-oxa-6-azabicyclo[3.1.0]hex-4-en-3-one]",MBC,E. coli ATCC 25922,128 µg/mL
same,MIC,E. coli ATCC 25922,128 µg/mL
same,MBC,Staphylococcus aureus; [3],> 128 µg/mL
same,MIC,Staphylococcus aureus; [3],128 µg/mL
same,MBC,S. aureus ATCC 25923,> 128 µg/mL
same,MIC,S. aureus ATCC 25923,128 µg/mL
same,MIC,Acinetobacter spp.; [4],32 µg/mL
same,MBC,P. aeruginosa ATCC 27853,128 µg/mL
same,MIC,P. aeruginosa ATCC 27853,128 µg/mL
same,MBC,Klebsiella pneumoniae; [3],64 µg/mL
same,MIC,Klebsiella pneumoniae; [3],64 µg/mL
same,MBC,Enterobacter spp.; [5],64 µg/mL
same,MIC,Enterobacter spp.; [5],64 µg/mL
same,MBC,Escherichia coli; [3],128 µg/mL
same,MIC,Escherichia coli; [3],64 µg/mL
same,MBC,Pseudomonas aeruginosa; [3],128 µg/mL
same,MIC,Pseudomonas aeruginosa; [3],128 µg/mL
"O=C1OC2C(=C1Cl)N2Cc1ccccc1 (stereo not drawn) [Example 4, 4-chloro-6-benzyl-2-oxa-6-azabicyclo[3.1.0]hex-4-en-3-one]",MBC,E. coli ATCC 25922,16 µg/mL
same,MIC,E. coli ATCC 25922,8 µg/mL
same,MBC,S. aureus ATCC 25923,8 µg/mL
same,MIC,S. aureus ATCC 25923,4 µg/mL
same,MBC,"Acinetobacter spp.; Acinetobacter, patient isolates, isolate code not given (one value per isolate), read-out: MBC",8 µg/mL
same,MIC,Acinetobacter spp.; [4],4 µg/mL
same,MBC,Acinetobacter spp.; [3],16 µg/mL
same,MIC,Acinetobacter spp.; [3],8 µg/mL
same,MBC,P. aeruginosa ATCC 27853,32 µg/mL
same,MIC,P. aeruginosa ATCC 27853,16 µg/mL
same,MBC,Enterobacter spp.; [5],16 µg/mL
same,MIC,Enterobacter spp.; [5],8 µg/mL
same,MBC,Enterobacter spp.; [3],32 µg/mL
same,MIC,Enterobacter spp.; [3],16 µg/mL
same,MBC,Escherichia coli; [3],16 µg/mL
same,MIC,Escherichia coli; [3],16 µg/mL
same,broad spectrum antibacterial activity,[1]; summary of Table 1,good broad spectrum activity
